This note sets out measurements from patent publication US20250177359A1, “COMPOUNDS FOR USE IN THE TREATMENT OF CANCER AND INFLAMMATORY CONDITIONS” (priority 2022, published 2025).

Each structure is given as a SMILES string. pIC50: −log10 of the molar value. Read-outs that look alike come from different tables or passages of the source.

Assay [1] has as its target T1, PARP10 (Homo sapiens, UniProt Q53GL7).
T1 construct: made in house
T1 sequence (Q53GL7 1-1025): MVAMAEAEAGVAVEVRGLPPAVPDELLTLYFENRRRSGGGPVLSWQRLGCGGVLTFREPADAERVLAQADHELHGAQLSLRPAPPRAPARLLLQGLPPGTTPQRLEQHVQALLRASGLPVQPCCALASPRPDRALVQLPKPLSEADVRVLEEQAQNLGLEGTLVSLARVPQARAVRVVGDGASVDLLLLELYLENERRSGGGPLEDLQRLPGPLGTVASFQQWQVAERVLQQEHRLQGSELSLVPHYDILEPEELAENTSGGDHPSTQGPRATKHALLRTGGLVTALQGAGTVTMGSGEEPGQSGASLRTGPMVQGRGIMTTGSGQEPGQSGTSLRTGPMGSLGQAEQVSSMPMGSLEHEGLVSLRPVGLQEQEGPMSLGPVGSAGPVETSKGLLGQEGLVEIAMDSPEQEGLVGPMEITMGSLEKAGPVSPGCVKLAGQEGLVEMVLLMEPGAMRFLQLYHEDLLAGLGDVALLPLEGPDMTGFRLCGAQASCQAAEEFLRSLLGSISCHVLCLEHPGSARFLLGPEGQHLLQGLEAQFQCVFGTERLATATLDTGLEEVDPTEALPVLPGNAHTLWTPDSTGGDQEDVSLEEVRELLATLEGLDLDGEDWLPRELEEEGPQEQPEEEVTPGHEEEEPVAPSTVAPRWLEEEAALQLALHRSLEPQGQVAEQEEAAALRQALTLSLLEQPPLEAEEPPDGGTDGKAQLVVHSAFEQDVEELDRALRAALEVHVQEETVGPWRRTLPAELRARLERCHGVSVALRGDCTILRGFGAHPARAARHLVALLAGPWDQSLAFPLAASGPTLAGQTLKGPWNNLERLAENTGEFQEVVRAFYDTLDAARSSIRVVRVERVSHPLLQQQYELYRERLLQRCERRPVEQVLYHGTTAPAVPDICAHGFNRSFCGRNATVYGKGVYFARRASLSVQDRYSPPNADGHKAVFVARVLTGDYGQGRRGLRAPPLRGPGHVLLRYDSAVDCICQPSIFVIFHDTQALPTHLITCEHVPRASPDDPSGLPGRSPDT
Briefly: Activity assay measuring NAD+ consumption, PARP10 (Tables 1-3). Type of assay: biochemical.

The target of assay [2] is T2, PARP15 (Homo sapiens, UniProt Q460N3).
T2 sequence (Q460N3 1-678): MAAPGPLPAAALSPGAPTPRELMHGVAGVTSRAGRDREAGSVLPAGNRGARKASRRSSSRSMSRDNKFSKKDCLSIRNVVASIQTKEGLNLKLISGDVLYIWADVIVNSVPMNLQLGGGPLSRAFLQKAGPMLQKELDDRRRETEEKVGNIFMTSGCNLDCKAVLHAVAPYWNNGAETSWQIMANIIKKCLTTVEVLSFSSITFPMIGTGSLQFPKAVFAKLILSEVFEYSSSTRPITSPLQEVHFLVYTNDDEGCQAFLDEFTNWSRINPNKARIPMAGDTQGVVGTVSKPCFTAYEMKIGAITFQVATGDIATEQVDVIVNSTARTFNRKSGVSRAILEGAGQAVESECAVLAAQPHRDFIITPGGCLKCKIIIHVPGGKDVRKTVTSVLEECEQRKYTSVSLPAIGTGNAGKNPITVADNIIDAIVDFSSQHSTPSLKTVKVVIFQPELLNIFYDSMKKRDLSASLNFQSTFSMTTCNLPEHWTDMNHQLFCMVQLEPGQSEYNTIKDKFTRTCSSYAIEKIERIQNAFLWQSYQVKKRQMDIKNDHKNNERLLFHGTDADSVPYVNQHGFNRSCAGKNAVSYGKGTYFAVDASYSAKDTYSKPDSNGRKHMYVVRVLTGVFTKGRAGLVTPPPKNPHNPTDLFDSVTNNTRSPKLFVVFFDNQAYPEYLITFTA
Briefly: biochemical. How it is done: All starting materials, reagents, and solvents were purchased from common commercial suppliers and were used as such without further purification. […] Organic solutions were dried over anhydrous Na2SO4 and concentrated with rotary evaporator at low pressure. All the reactions were routinely checked by thin-layer chromatography (TLC) on silica gel 60F254 (Merck) and visualized by using UV and iodine. Flash chromatography separations were carried out on Merck silica gel 60 (mesh 230-400) or by using automated Buchi Reveleris X2-UV with column FP Ecoflex Si 12 g. Yields were of purified products and were not optimized. ^1HNMR spectra were recorded at 400 MHz (Bruker Avance DRX-400), while ^13CNMR spectra were recorded at 101 MHz (Bruker Avance DRX-400). Chemical shifts are given in ppm (δ) relative to TMS. […] Mating constant (J) are reported in Hz. The purity of the tested compounds was evaluated by HPLC analysis using Jasco LC-4000 instrument equipped with a UV-Visible Diode Array Jasco-MD4015 (Jasco Corporation, Tokyo, Japan), and XTerra MS C18 column, 5 μm×4.6 mm×150 mm (Waters Corporation, Massachusetts, USA). Chromatograms were analyzed by ChromNAV2.0 Chromatography Data System software. […] The peak retention time (ret. time) is given in minutes. […] 1-Isobutoxy-4-methoxy-2-nitrobenzene (113). Isobutyl alcohol (0.6 mL, 6.43 mmol) was added, under nitrogen atmosphere at 0° C., to a suspension of NaH (0.26 g, 6.43 mmol) in dry DMF. After 15 minutes, 1-fluoro-4-methoxy-2-nitrobenzene 112 (1 g, 5.84 mmol) was also added and the reaction mixture was stirred at 80° C. for 4 h. […] (2-Isobutoxy-5-methoxyphenyl)amine (114). Zn (1.57 g, 24 mmol) and NH4C1 (2.45 g, 40 mmol) were added to a solution of 113 (0.46 g, 2 mmol) in acetone/H2O (50 mL, ratio 5:1). The reaction mixture was stirred at 60° C. for 3 h and, then, it was filtered over celite. […] N-(2,5-diethoxyphenyl)thiourea (55). […] N-(2-isobutoxy-5-methoxyphenyl)thiourea (115). […] A solution of Br2 (0.2 mL, 3.3 mmol) in CHCl3 (5 mL) was slowly added to a suspension of 45 (0.6 g, 3.3 mmol) in CHCl3 (13 mL), at 0° C. The reaction mixture was stirred at r.t. for 4 h and, then, a 10% solution of Na2SO3 in water was added to the mixture. […] 4,7-Diethoxy-1,3-benzothiazol-2-amine (66). […] 4-Isobutoxy-7-methoxy-1,3-benzothiazol-2-amine (116). […] Hydrazine hydrate (0.23 mL, 4.77 mmol) and CH3COOH (0.12 mL, 2.1 mmol) were added to a suspension of 56 (0.29 g, 1.59 mmol) in ethylene glycol (8 mL), and the reaction mixture was stirred for 24 h at 125° C. […] 6-Ethyl-2-hydrazino-1,3-benzothiazole (69). […] 6-Ispropyl-2-hydrazino-1,3-benzothiazole (70). […] 2-Hydrazino-4,7-dimethoxy-1,3-benzothiazole (73). […] 2-Hydrazino-5,7-dimethoxy-1,3-benzothiazole (75). […] 2-Hydrazino-4,7-Diethoxy-1,3-benzothiazole (77). […] 2-Hydrazino-5-methyl[1,3]thiazolo[5,4-b]pyridine (100). […] A solution of 67 (0.13 g, 0.65 mmol) in formic acid (5 mL) was refluxed for 10 h. The reaction mixture was then poured into ice/water and the pH was neutralized using a saturated solution of NaHCO3.

Where [3] appears, read: PARP10 pIC50 ± SEM, Tables 1-3 assay.
[4] abbreviates: Tables 1-3 assay, > less than 50% inhibition, >> no inhibition at reported concentration, * value limited by protein concentration, read-out: PARP10 IC50.
Where [5] appears, read: read-out: PARP15 IC50, Tables 1-3 assay, > less than 50% inhibition, >> no inhibition at reported concentration, * value limited by protein concentration.
The mark [6] stands for this setting: PARP10 IC50, Tables 1-3 assay, > less than 50% inhibition, >> no inhibition at reported concentration, * value limited by protein concentration.

Regarding `COc1ccc(OCC(C)C)c2c1sc1nnc(N)n12` [Compound 110, 5-Isobutoxy-8-methoxy[1,2,4]triazolo[3,4-b][1,3]benzothiazol-3-amine], the pIC50 was 7.10 in assay [1] (PARP10 IC50, Tables 1-3 assay); 7.09 in assay [1] (setting [3]); 6.74 in assay [2].

Take `COc1cc2sc3nnc(N)n3c2cc1OC` [Compound 104, 6,7-Dimethoxy[1,2,4]triazolo[3,4-b][1,3]benzothiazol-3-amine]: the pIC50 was 6.96 in assay [1] (PARP10 IC50, Tables 1-3 assay); 6.97 in assay [1] (setting [3]); 6.77 in assay [2] (PARP15 IC50, Tables 1-3 assay).

As for `COc1ccc(OC)c2c1SC1=NNC(NC(=O)c3ccc(Cl)cc3)N12` (stereo not drawn) [Compound 29, 4-Chloro-N-(5,8-dimethoxy-2,3-dihydro[1,2,4]triazolo[3,4-b][1,3]benzothiazol-3-yl)benzamide], the negative logarithm of the IC50 (pIC50) in assay [1] (setting [4]) is below 5.00; in assay [2] (setting [5]), 5.10.

Turning to `COc1ccc(OC)c2c1SC1=NNC(SC)N12` (stereo not drawn) [Compound 27, 5,8-Dimethoxy-3-(methylthio)-2,3-dihydro[1,2,4]triazolo[3,4-b][1,3]benzothiazole], the pIC50 in assay [1] (setting [4]) and in assay [2] (setting [5]) was below 5.00 throughout.

Turning to `CC(=O)Nc1nnc2sc3cc(C)ccc3n12` [Compound 107, N-(7-methyl[1,2,4]triazolo[3,4-b][1,3]benzothiazol-3-yl)acetamide], the pIC50 in assay [1] (setting [6]) is 5.59; in assay [2] (PARP15 IC50, Tables 1-3 assay, > less than 50% inhibition, >> no inhibition at reported concentration, * value limited by protein concentration), 5.28.

With `CCOc1ccc(OCC)c2c1sc1nncn12` [Compound 102, 5,8-Diethoxy[1,2,4]triazolo[3,4-b][1,3]benzothiazole], the “inhibition of PARP10 (in words)” value in assay [1] is reported as “potent PARP10 inhibitors”. For the same molecule, the pIC50 in assay [1] (PARP10 IC50, Tables 1-3 assay) was 6.21.

As for `c1cnc2sc3nncn3c2c1` [Compound 101, [1,2,4]Triazolo[3′,4′:2,3][1,3]thiazolo[5,4-b]pyridine], the “inhibition of PARP10 (in words)” value in assay [1] is “only weak inhibition”. Besides, the pIC50 in assay [1] (setting [6]) is 4.52.

For the molecule `Nc1nnc2sc3cc(Br)ccc3n12` [Compound 108, 7-Bromo[1,2,4]triazolo[3,4-b][1,3]benzothiazol-3-amine], the pIC50 in assay [1] (PARP10 IC50, Tables 1-3 assay) is 7.22; in assay [2] (PARP15 IC50, Tables 1-3 assay), 6.82; in assay [2] (PARP15 pIC50 ± SEM, Tables 1-3 assay), 6.84.

As to `CCOc1ccc(OCC)c2c1sc1nnc(N)n12` [Compound 103, 5,8-Diethoxy[1,2,4]triazolo[3,4-b][1,3]benzothiazol-3-amine], in assay [1], the “inhibition of PARP10 (in words)” value is listed as “potent PARP10 inhibitors”. The same molecule showed a pIC50 in assay [1] (PARP10 IC50, Tables 1-3 assay) of 7.14.
